In assay [1] the target is GABA-A receptor; anion channel (Homo sapiens) (UniProt P14867+P47870+P18507+P28472+P48169+Q99928+Q9UN88+P34903+O00591+O14764+Q8N1C3+P18505+P78334+P47869+P31644+Q16445). Kind of assay: GABA-induced 36Cl- influx in hamster cerebral cortex synaptoneurosomes at 0.1 uM. It is filed as functional, tissue-based. The conditions noted are these: Cricetulus griseus.
For assay [2], the system named is Cricetinae gen. sp. Kind of assay: Compound was tested for reduction of 3-mercaptopropionic acid induced seizures in hamsters at 20 mg/kg; Active. The assay is classed as functional, organism-based. The conditions noted are these: Cricetulus griseus. Set-up: dose 20 mg/kg.

Each structure is given as a SMILES string. Activity calls are given as the source filed them. No cut-off for these calls is given here.

For `CC(=O)[C@H]1CCC2C3CC4OC[C@@]5(CC[C@@H](O)C=C45)C3CC[C@@]21C` (some centres not stated), the outcome in assay [1] and in assay [2] was Active.

These data come from ChEMBL document CHEMBL1145885, “Synthesis and GABA(A) receptor activity of a 6,19-oxido analogue of pregnanolone” (Bioorg Med Chem Lett, 2003).
